Data from paper PMC6199744, “Development of Chemical Proteomics for the Folateome and Analysis of the Kinetoplastid Folateome” (ACS Infectious Diseases, 2018).
Read-outs that look alike come from different tables or passages of the source.

Assays:
Type in all cases: binding
[1] = target: T1, HeLa cell extract proteins (Homo sapiens, UniProt P00505)
T1 construct: endogenous in cells; host or cells: HeLa cell extract
T1 sequence (P00505 30-430): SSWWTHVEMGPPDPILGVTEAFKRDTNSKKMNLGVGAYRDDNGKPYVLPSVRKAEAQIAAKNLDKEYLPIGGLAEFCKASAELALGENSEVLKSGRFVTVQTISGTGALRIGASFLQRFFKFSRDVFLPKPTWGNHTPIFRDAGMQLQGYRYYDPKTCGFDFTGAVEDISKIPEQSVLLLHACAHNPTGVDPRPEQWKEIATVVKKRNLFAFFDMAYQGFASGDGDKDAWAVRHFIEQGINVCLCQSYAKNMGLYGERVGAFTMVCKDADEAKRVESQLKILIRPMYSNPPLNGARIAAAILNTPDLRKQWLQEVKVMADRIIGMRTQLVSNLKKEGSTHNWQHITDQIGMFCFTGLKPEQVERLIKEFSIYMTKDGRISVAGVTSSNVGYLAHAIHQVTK

[2] = target: T2, HeLa cell extract proteins (Homo sapiens, UniProt P50990)
T2 construct: endogenous in cells; host or cells: HeLa cell extract
T2 sequence (P50990 1-548): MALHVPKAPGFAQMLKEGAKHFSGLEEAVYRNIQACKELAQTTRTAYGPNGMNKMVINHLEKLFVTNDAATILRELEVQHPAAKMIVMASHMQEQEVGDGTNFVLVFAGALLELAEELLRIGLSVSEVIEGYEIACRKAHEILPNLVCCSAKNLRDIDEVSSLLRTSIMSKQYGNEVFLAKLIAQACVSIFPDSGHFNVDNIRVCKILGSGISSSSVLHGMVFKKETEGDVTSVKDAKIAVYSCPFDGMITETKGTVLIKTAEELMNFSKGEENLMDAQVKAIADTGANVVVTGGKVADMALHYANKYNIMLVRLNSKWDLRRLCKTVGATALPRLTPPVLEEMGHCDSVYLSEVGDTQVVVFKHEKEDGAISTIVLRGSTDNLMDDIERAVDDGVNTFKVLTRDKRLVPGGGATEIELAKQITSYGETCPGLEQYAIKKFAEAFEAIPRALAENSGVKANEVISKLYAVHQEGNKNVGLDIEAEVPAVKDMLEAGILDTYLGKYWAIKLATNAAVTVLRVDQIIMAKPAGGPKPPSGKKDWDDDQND

[3] = target: T3, HeLa cell extract proteins (Homo sapiens, UniProt P35270)
T3 construct: endogenous in cells; host or cells: HeLa cell extract
T3 sequence (P35270 whole entry): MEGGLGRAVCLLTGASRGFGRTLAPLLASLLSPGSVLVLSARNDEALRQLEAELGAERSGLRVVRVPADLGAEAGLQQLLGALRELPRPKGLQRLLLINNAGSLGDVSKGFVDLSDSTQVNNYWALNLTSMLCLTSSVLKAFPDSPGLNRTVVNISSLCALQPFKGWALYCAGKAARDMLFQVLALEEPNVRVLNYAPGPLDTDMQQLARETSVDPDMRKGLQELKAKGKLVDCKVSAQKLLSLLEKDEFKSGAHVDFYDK

[4] = target: T4, HeLa cell extract proteins (Homo sapiens, UniProt Q8IXB1)
T4 construct: endogenous in cells; host or cells: HeLa cell extract
T4 sequence (Q8IXB1 33-793): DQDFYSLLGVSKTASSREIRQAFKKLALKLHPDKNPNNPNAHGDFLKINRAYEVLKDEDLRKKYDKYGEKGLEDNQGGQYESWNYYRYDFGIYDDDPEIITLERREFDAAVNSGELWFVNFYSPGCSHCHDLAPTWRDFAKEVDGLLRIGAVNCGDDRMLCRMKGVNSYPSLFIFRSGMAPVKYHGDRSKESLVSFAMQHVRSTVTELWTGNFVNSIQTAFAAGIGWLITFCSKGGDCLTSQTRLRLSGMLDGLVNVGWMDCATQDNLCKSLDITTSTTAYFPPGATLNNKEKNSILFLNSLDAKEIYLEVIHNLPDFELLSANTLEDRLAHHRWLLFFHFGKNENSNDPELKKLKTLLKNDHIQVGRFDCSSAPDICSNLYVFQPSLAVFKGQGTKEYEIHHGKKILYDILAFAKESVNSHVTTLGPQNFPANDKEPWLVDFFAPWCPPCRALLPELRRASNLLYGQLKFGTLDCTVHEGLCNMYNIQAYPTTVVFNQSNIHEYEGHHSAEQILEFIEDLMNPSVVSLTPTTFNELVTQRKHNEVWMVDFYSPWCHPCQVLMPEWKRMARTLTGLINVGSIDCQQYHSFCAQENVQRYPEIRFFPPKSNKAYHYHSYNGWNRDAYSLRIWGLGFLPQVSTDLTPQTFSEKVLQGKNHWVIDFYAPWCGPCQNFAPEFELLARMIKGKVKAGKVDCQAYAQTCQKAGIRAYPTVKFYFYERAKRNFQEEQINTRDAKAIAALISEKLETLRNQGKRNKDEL

[5] = target: T5, HeLa cell extract proteins (Homo sapiens, UniProt P12277)
T5 construct: endogenous in cells; host or cells: HeLa cell extract
T5 sequence (P12277 whole entry): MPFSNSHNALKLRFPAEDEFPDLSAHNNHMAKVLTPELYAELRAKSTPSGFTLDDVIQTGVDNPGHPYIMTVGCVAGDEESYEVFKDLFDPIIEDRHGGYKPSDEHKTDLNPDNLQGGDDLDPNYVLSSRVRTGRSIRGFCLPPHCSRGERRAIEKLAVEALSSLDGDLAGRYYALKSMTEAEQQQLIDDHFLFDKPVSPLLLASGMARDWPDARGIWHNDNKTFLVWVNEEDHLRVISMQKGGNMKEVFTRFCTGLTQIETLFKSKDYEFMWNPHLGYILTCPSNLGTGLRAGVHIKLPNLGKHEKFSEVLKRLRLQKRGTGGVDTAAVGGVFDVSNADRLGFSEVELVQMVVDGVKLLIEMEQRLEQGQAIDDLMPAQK

[6] = HeLa, protein CKB (CREATINE KINASE B-TYPE.)

Row | Compound | fold changes relative to vehicle control ([1]; protein GOT2, HeLa) | fold changes relative to vehicle control ([2]; protein CCT8, HeLa) | fold changes relative to vehicle control ([3]; protein SPR, HeLa) | fold changes relative to vehicle control ([4]; HeLa, protein DNAJC10) | fold changes relative to vehicle control [5, 6] [fold] | fold changes relative to vehicle control [1] | fold changes relative to vehicle control [2] | fold changes relative to vehicle control [3] | fold changes relative to vehicle control [4] | fold changes relative to vehicle control [5] | fold changes relative to vehicle control ([1]; HeLa, protein GOT2) | fold changes relative to vehicle control ([2]; HeLa, protein CCT8) | fold changes relative to vehicle control ([3]; HeLa, protein SPR) | fold changes relative to vehicle control ([5]; HeLa, protein CKB)
1 | Nc1nc2cccc(-c3ccccc3)c2n1Cc1ccc(Cl)c(Cl)c1 [compound 3] | 0.84 | 0.96 | 1.12 | 1.04 | 0.92 |  |  |  |  |  |  |  |  | 
2 | Nc1nc2[nH]cc(CCc3ccc(C(=O)N[C@@H](CCC(=O)O)C(=O)O)cc3)c2c(=O)[nH]1 [PTX, pemetrexed] |  |  |  |  |  | 0.99 | 1.02 | 0.86 | 0.91 | 1.11 |  |  |  | 
3 | Nc1nc2c(c(=O)[nH]1)N(C=O)C(CNc1ccc(C(=O)N[C@@H](CCC(=O)O)C(=O)O)cc1)CN2 (some centres unmarked) [LEU, leucovorin] |  |  |  | 0.89 |  |  |  |  |  |  | 0.94 | 0.99 | 0.92 | 1.01
4 | CCCCCCOc1cccc(Cc2cnc(N)nc2N)c1 [compound 2] | 2.22 | 1.92 | 1.21 | 0.85 | 2.55 |  |  |  |  |  |  |  |  | 
5 | NCCOCCOCC(=O)Nc1nc2ncc(CNc3ccc(C(=O)NC(CCC(=O)O)C(=O)O)cc3)nc2c(=O)[nH]1 (centres unmarked) [compound 6] |  |  |  | 0.89 |  |  |  |  |  |  | 1.16 | 1.15 | 0.92 | 1.23
6 | CCCCCCOc1ccc(Cc2cnc(N)nc2N)cc1 [compound 1] | 1.12 | 1.16 | 1.03 | 0.89 | 1.55 |  |  |  |  |  |  |  |  | 
7 | NCCCNc1ccc(C(=O)NC(CCC(=O)O)C(=O)O)cc1 (centres unmarked) [compound 7] |  |  |  | 0.94 |  |  |  |  |  |  | 0.94 | 0.92 | 0.95 | 0.93
